Tests used:
[1] = test system: auricle edema induced by arachidonic acid; assay: Inhibitory activity on auricle edema induced by arachidonic acid; type: in vivo, ddY mice; conditions: mouse, oral, 1 hour after arachidonic acid
Experimental: EXPERIMENT 5: INHIBITORY ACTIVITY ON AURICLE EDEMA INDUCED BY ARACHIDONIC ACID
[…]. Dermatol. 82, p. 367, 1984. The mice were orally administered with a test drug suspended in 0 5% CMC-Na, and after one hour, 10 μl of arachidonic acid in acetone (50 mg/ml) were applied to front and back surfaces of the left auricles of each mouse. One hours later, the thicknesses of the left and right auricles were measured by means of a dial gauge, and the rate of edema of the left auricle was calculated in comparison with the right auricle (normal). Inhibitory rate of each drug-treated group against edema formation was calculated in comparison with the solvent-treated control.

[2] = test system: paw edema induced by carageenin; assay: Inhibitory activity on paw edema induced by carageenin; type: in vivo, Wistar rats; conditions: rat, oral, 10 mg/kg, 3 hours after carageenin
Experimental: EXPERIMENT 4: INHIBITORY ACTIVITY ON PAW EDEMA INDUCED BY CARAGEENIN
Wistar rats (body weight: 110-130 g) starved overnight were orally administered with a test drug suspended in 0.5% CMC-Na, and after one hour, 0.1 ml of 1% carageenin solution (picnin-A, Zushi Kagaku) was subcutaneously injected into the right hind leg paw of each rat. Three hours later, the volume of the paw was determined by means of a plethysmometer (Model 7150, Ugo Basile Co.,Ltd.) and the rate of edema was evaluated in comparison with the volume of the paw before the carageenin injection as 100%. Inhibitory rate of each drug-treated group against edema formation was calculated in comparison with the solvent-treated control.

[3] = test system: lipid peroxidation (crude homogenate prepared from brain tissues of Wistar rats); assay: Inhibitory activity on lipid peroxidation (anti-oxidation activity); type: biochemical; conditions: rat brain homogenate, 37° C., 30 minutes; malondialdehyde, 532 nm
Experimental: EXPERIMENT 1: INHIBITORY ACTIVITY ON LIPID PEROXIDATION (ANTI-OXIDATION ACTIVITY)
The captioned activity was evaluated according to the method described by Kakihana et al., Nihon Yakurigaku Zasshi (Folia Pharmacologica Japonica), 80, p. 225, 1982. To a 1 ml of a crude homogenate prepared from brain tissues of Wistar rats, 10 μl of a solution of test drug in dimethyl sulfoxide was added, and after pre-incubation under ice-cooling for 10 minutes, the mixture was subjected to a reaction at 37° C. for 30 minutes. The reaction was stopped by adding 200 μl of 35% perchloric acid to the mixture and then the mixture was centrifuged. To a 1 ml of the supernatant obtained, 0.5 ml of 0.5% thiobarbituric acid was added and the mixture was heated under a boiling water bath for 15 minutes. The mixture was cooled to room temperature and absorbance of the mixture at 532 nm was measured. The inhibitory rate was obtained using the amount of malondialdehyde generated by the solvent-treated control, which equals to 100%, and 50% median inhibitory concentration (IC50) was calculated according to the probit method as indexes of anti-oxidation activity.

[4] = test system: auricle edema induced by oxazolone; assay: Effect on auricle edema induced by oxazolone (delayed allergy); type: in vivo, ICR mice; conditions: mouse, oral, 10 mg/kg × 2 (30 minutes before, 6 hours after), 24 hours
Experimental: EXPERIMENT 6: EFFECT ON AURICLE EDEMA INDUCED BY OXAZOLONE (DELAYED ALLERGY)
[…]. The mice were sensitized by the application of 0.1 ml of 0.5% oxazolone in ethanol to shaven abdominal skin. Five days later, inflammation was induced by applying 10 μl of 0.5% oxazolone in acetone to front and back surfaces Of the right auricle. After 24 hours, the thicknesses of the left and right auricles were measured by a dial gauge, and the rate of edema of the right auricle was calculated in comparison with the left auricle (normal). A test drug was suspended in 0.5% CMC--Na and orally administered twice to each mouse , i.e., 30 minutes before and 6 hours after the inflammation-inducing treatment. Inhibitory rate of each drug-treated group against edema was calculated in comparison with the solvent-treated control.

cyclooxygenase = molecular target: T1, cyclooxygenase (Ovis aries, UniProt P05979); assay: Inhibitory activity on cyclooxygenase; type: biochemical; conditions: PGE2 generation, sheep seminal vesicle microsome, 16 μM 14C-arachidonic acid, pH 8.3
T1 construct: Sheep seminal vesicle microsome fraction (Funakoshi) was used as an enzyme sample; purchased Funakoshi; host or cells: sheep seminal vesicle microsome fraction
T1 sequence (P05979 25-600): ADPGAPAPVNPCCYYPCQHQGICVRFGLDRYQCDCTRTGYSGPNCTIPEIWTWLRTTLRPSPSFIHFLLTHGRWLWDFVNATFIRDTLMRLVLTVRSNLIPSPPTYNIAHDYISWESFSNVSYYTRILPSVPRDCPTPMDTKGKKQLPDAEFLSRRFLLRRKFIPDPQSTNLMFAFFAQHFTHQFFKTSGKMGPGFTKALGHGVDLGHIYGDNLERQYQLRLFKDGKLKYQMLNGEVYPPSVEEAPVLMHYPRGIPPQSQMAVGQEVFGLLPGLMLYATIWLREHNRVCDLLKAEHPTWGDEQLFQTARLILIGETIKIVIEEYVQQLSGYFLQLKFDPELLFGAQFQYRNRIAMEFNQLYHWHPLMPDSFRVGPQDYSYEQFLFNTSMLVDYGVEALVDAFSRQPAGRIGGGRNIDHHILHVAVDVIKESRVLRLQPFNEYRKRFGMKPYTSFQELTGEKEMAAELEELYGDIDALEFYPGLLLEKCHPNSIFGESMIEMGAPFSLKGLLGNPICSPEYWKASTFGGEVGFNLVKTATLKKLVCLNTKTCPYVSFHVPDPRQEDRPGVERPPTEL
Experimental: EXPERIMENT 3: INHIBITORY ACTIVITY ON CYCLOOXYGENASE
Sheep seminal vesicle microsome fraction (Funakoshi) was used as an enzyme sample. A solution of a test drug was mixed with a reaction solution (3 μM epinephrine, 3 mM glutathione, and the enzyme fraction in 100 mM Tris-HCI buffer, pH 8.3). The mixture was pre-incubated at 37° C. for 5 minutes, and then 16 μ M^14 C-arachidonic acid was added to the mixture, which was allowed to react for 3 minutes. After the completion of the reaction, the product was immediately extracted, dissolved in chloroform/methanol (2:1) and developed by thin-layer chromatography. Radioactivity of the prostaglandin E2 (PGE2) fraction was measured using a liquid scintillation counter. Inhibitory rate of each drug-treated group against PGE2 generation was obtained in comparison with the solvent-treated control, and IC50 was calculated according to the probit method.

granuloma formation = assay: Inhibitory activity on granuloma formation (proliferative inflammation); type: in vivo, Wistar rats; conditions: rat, oral, 10 mg/kg every day for 8 days
Experimental: EXPERIMENT 7: INHIBITORY ACTIVITY ON GRANULOMA FORMATION (PROLIFERATIVE INFLAMMATION)
Evaluation was carried out by using Wistar rats (120-140 g) according to the method described by Fujiyoshi et al., Nihon Yakurigaku Zasshi (Folia Pharmacologica Japonica), 87, p. 379, 1986. Back skin of the rat was lightly incised under anesthesia with pentobarbital, and filter paper discs for antibiotic assay (57 mg, 13.0.phi., Whatman) sterilized by autoclave were embedded under the skin at the both axillae. 0.1 ml of a mixture of streptomycin and penicillin G (each 1 mg/ml) was administered dropwise to the incised site and the incised skin was sutured. From the day of the disc embedment, a test drug suspended in 0.5% CMC--Na was orally administered to the rat every day for 8 days. The rat was sacrificed at the day of last administration and granuloma including the filter paper was extirpated from the circumferential tissue and dried at 110° C. overnight. The dry weight of the granuloma was measured and inhibitory rate of each drug-treated group against granulation formation was calculated in comparison with the solvent-treated control.

ddY mice = assay: Acute toxicity; type: in vivo; conditions: mouse, oral, 600 mg/kg, observed for 2 weeks
From the text: EXPERIMENT 9: ACUTE TOXICITY

5-lipoxygenase = molecular target: T2, 5-lipoxygenase (Cavia porcellus, UniProt A0A286X958); assay: Inhibitory activity on 5-lipoxygenase; type: biochemical, guinea pigs; conditions: 5-HETE generation, 20 μM 14C-arachidonic acid, pH 7.4, 37° C., 10 minutes
T2 construct: crude enzyme fraction prepared from peritoneal exudated cells of guinea pigs; endogenous in cells; host or cells: guinea pig peritoneal exudate cells (induced by intraperitoneal casein), crude enzyme fraction
T2 sequence (A0A286X958 1-674): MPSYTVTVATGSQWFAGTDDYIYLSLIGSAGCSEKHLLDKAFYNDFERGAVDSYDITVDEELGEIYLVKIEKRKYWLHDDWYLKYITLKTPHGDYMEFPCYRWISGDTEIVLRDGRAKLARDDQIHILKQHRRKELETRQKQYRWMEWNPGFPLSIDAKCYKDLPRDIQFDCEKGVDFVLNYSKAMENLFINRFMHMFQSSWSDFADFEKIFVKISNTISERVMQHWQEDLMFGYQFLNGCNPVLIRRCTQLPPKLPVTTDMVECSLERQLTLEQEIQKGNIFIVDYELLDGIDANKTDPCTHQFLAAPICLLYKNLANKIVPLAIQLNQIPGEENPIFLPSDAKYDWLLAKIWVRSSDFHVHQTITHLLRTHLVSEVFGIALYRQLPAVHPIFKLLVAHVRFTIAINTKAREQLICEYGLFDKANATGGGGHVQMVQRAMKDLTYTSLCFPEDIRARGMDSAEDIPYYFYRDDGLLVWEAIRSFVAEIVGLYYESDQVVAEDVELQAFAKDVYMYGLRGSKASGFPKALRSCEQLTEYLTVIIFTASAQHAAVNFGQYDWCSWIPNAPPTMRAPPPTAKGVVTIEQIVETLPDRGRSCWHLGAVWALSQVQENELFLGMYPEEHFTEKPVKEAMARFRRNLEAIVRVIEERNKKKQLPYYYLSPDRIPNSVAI
Experimental: EXPERIMENT 2: INHIBITORY ACTIVITY ON 5-LIPOXYGENASE
5-Lipoxygenase activity was determined according to the method described by Ochi et al., J. Biol. Chem.,258, p. 5754, 1983 using a crude enzyme fraction prepared from peritoneal exudated cells of guinea pigs which were induced by intraperitoneal injection of 2% case in solution. A solution of a test drug was mixed with a reaction solution (2mM ATP, 1 mM glutathione,and the enzyme fraction in 50 mM phosphate buffer, PH 7.4) and the mixture was pre-incubated at 37° C. for 5 minutes. Calcium chloride (1 mM) and 20 μM^14 C-arachidonic acid were added to the mixture, and then the mixture was subjected to a reaction at 37° C. for 10 minutes. After the completion of the reaction, the product was immediately extracted, dissolved in chloroform/methanol (2:1), and developed by thin-layer chromatography. Radioactivity of the 5-hydroxyeicosatetraenoic acid (5-HETE) fraction was measured using a liquid scintillation counter. Inhibitory rate of each drug-treated group against 5-HETE generation was obtained in comparison with the solvent-treated control, and IC50 was calculated according to the probit method.

IC50 [3] [µM]	IC50 (cyclooxygenase) [µM]	Structure (SMILES)	Inhibition on Edema (%) ([1]; 30 mg/kg)	also measured
		O=C(O)Cn1cccc1-c1cc(-c2ccccc2)c(-c2ccccc2)o1 [Compound 114]	41.9	
4.83		CC(C)c1cc(-c2cc(-c3ccccc3)c(-c3ccccc3)o2)n(CC(=O)O)c1 [Compound 117]		Inhibition on Edema (%) [2]: 50.9%
		COc1ccc(-c2cc(-c3cc(C(C)C)cn3CC(=O)O)oc2-c2ccccc2)cc1 [Compound 142]		Inhibition on Edema (%) [2]: 45.4%; Inhibition on Edema (%) [4]: 62.2%
	0.082	COc1ccc(-c2oc(-c3cccn3CC(=O)O)cc2-c2ccccc2)cc1 [Compound 150]		
2.73		CCc1ccc(-c2cc(-c3ccc(OC)cc3)c(-c3ccc(C)cc3)o2)n1CC(=O)O [Compound 165]		
4.49	0.111	COc1ccc(-c2cc(-c3cccn3C(C)C(=O)O)oc2-c2ccc(OC)cc2)cc1 (stereo not drawn) [Compound 176]	30.6	Inhibition on Granuloma (%) (granuloma formation): 32.4%; Inhibition on Edema (%) [4]: 56.4%
3.24		COc1ccc(-c2cc(-c3cccn3CCC(=O)O)oc2-c2ccc(OC)cc2)cc1 [Compound 178]		
3.13	0.075	COc1ccc(-c2oc(-c3cccn3CC(=O)O)c(C)c2-c2ccc(OC)cc2)cc1 [Compound 184]		
2.2	0.095	CCc1cc(-c2cc(-c3ccc(OC)cc3)c(-c3ccc(OC)cc3)o2)n(CC(=O)O)c1 [Compound 185]		IC50 (5-lipoxygenase): 1 µM
		CCCc1ccc(-c2cc(-c3ccc(OC)cc3)c(-c3ccc(OC)cc3)o2)n1CC(=O)O [Compound 195]	43.9	IC50 (5-lipoxygenase): 0.91 µM
2.44		CCOc1ccc(-c2cc(-c3ccc(CC)n3CC(=O)O)oc2-c2ccc(OCC)cc2)cc1 [Compound 217]		
		CC(C)Cc1ccc(C(C)C(=O)O)cc1 (stereo not drawn) [Ibuprofen, reference compound]		Inhibition on Edema (%) ([1]; 100 mg/kg): 0%

Structure (SMILES)	IC50 [3] [µM]	IC50 (cyclooxygenase) [µM]	Inhibition on Edema (%) ([1]; 30 mg/kg)	also measured
COc1ccc(-c2cc(-c3cccn3CC(=O)O)oc2-c2ccc(OC)cc2)cc1 [Compound 175]	3.63	0.069	50.6	Inhibition on Granuloma (%) (granuloma formation): 32.2%; Inhibition on Edema (%) [2]: 44.1%; Dead Mice/Total Mice (ddY mice): 1/5; Inhibition on Edema (%) [4]: 52.1%
COc1ccc(-c2cc(-c3cc(C(C)C)cn3CC(=O)O)oc2-c2ccc(OC)cc2)cc1 [Compound 188]	2.41		55.0	IC50 (5-lipoxygenase): 1.11 µM; Inhibition on Granuloma (%) (granuloma formation): 29.7%; Dead Mice/Total Mice (ddY mice): 4/5; Inhibition on Edema (%) [4]: 44.2%
COc1ccc(-c2cc(-c3ccc(C)n3CC(=O)O)oc2-c2ccc(OC)cc2)cc1 [Compound 192]		0.057		IC50 (5-lipoxygenase): 0.91 µM; Inhibition on Edema (%) [2]: 38.4%; Dead Mice/Total Mice (ddY mice): 0/5
